According to US20240158446A1, “CYCLIC COMPOUND HAVING SELECTIVE INHIBITORY ACTION ON KRAS OVER HRAS AND NRAS” (CHUGAI SEIYAKU KABUSHIKI KAISHA, priority 2021, published 2024):

Tests used:
[1] = biological target: GDP-bound KRAS wild-type protein (Homo sapiens, UniProt P01116); assay: Binding to KRAS by surface plasmon resonance (SPR), Single Cycle Kinetics; details: SPR Single Cycle Kinetics, GDP-bound KRAS wild-type protein, 1:1 binding model; read-out: KRAS KD
[2] = biological target: GDP-bound NRAS wild-type protein (Homo sapiens, UniProt P01111); assay: Binding to NRAS by surface plasmon resonance (SPR), Single Cycle Kinetics; details: SPR KD ratio NRAS/KRAS, class symbols
[3] = biological target: GDP-bound HRAS wild-type protein (Homo sapiens, UniProt P01112); assay: Binding to HRAS by surface plasmon resonance (SPR), Single Cycle Kinetics; details: SPR KD ratio HRAS/KRAS, class symbols
[4] = test system: human lung cancer strain NCI-H441;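 also: cell proliferation inhibition after four days measured by CellTiter-Glo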

Sequence of GDP-bound NRAS wild-type protein (P01111 whole entry): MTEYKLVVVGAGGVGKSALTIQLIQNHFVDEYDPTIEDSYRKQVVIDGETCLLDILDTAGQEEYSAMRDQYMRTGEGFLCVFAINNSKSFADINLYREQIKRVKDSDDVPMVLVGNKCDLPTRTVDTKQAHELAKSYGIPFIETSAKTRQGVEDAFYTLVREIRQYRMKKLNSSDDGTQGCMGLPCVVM
Sequence of GDP-bound KRAS wild-type protein (P01116 whole entry): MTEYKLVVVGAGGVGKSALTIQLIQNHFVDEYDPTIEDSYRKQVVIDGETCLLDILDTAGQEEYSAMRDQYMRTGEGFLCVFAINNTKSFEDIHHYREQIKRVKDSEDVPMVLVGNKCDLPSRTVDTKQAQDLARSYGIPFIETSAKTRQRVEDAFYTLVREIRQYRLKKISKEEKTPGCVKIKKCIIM
Sequence of GDP-bound HRAS wild-type protein (P01112 whole entry): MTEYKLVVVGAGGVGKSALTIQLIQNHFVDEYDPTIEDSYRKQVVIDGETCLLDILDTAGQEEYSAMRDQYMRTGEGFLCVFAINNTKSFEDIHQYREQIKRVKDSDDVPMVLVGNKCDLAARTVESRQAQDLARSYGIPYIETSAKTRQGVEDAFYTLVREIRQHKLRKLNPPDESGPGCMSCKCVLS

| SMILES | Kd [1] [nM] | NRAS/KRAS (ratio of KD value with respect to GDP-bound NRAS wild-type protein to KD value with respect to KRAS) [2] | HRAS/KRAS (ratio of KD value with respect to GDP-bound HRAS wild-type protein to KD value with respect to KRAS) [3] | IC50 [4] [nM] |
| --- | --- | --- | --- | --- |
| CCC(CC)[C@H]1C(=O)N(C)[C@H](C(=O)N(C)C)CC(=O)N(C)[C@@H](COC)C(=O)N[C@@H]([C@@H](C)CC)C(=O)N(C)CC(=O)N(C)[C@H]2C/C=C\CCN(C2=O)[C@@H](Cc2ccc(C(F)(F)F)cc2)C(=O)N(C)CC(=O)N[C@@H](CCc2ccc(Cl)c(Cl)c2)C(=O)N2C[C@H](OC(C)C)C[C@H]2C(=O)NC2(CC(C)(C)C2)C(=O)N1C [PP2533] | 0.49 | AA (a compound having 20 or more is denoted as AA) | A (a compound having 10 or more and less than 20 is denoted as A) | 20 |
| CCC[C@H]1C(=O)N[C@@H](CC(C)C)C(=O)N(C2CC2)CC(=O)N(C)[C@H]2C/C=C\CCN(C2=O)[C@@H](Cc2ccc(C)cc2)C(=O)N(C)CC(=O)N[C@@H](CCc2ccc(C(F)(F)F)c(OC)c2)C(=O)N2C[C@H](OCC)C[C@H]2C(=O)NC2(CCC2)C(=O)N(C)[C@@H](C2CCCC2)C(=O)N(C)[C@H](C(=O)N(C)C)CC(=O)N1C [PP2534] | 4.1 | A (a compound having 10 or more and less than 20 is denoted as A) | B (a compound having 3 or more and less than 10 is denoted as B) | 195 |
| CCC[C@H]1C(=O)N[C@@H]([C@@H](C)CC)C(=O)N(C)CC(=O)N(C)[C@H]2C/C=C\CCN(C2=O)[C@@H](Cc2ccc(C(F)F)cc2)C(=O)N(C)CC(=O)N[C@@H](CCc2ccc(Cl)c(Cl)c2)C(=O)N2C[C@H](OC(C)C)C[C@H]2C(=O)NC2(CC(C)(C)C2)C(=O)N(C)[C@@H](C(CC)CC)C(=O)N(C)[C@H](C(=O)N(C)C)CC(=O)N1C [PP2535] | 0.54 | AA (a compound having 20 or more is denoted as AA) | A (a compound having 10 or more and less than 20 is denoted as A) | 26.8 |
| C#CCN1CC(=O)N(C)[C@H]2C/C=C\CCN(C2=O)[C@@H](Cc2ccc(C)cc2)C(=O)N(C)CC(=O)N[C@@H](CCc2cc(F)c(C(F)(F)F)c(F)c2)C(=O)N2C[C@H](OCC)C[C@H]2C(=O)NC2(CCC2)C(=O)N(C)[C@@H](C2CCCC2)C(=O)N(C)[C@H](C(=O)N(C)C)CC(=O)N(C)[C@@H](CCC)C(=O)N[C@@H](CC(C)C)C1=O [PP2536] | 2.4 | A (a compound having 10 or more and less than 20 is denoted as A) | B (a compound having 3 or more and less than 10 is denoted as B) | 152 |
| CCC[C@H]1C(=O)N[C@@H]([C@@H](C)CC)C(=O)N(C)CC(=O)N(C)[C@H]2C/C=C\CCN(C2=O)[C@@H](Cc2ccc(C)cc2)C(=O)N(C)CC(=O)N[C@@H](CCc2ccc(Cl)c(Cl)c2)C(=O)N2C[C@H](OC(C)C)C[C@H]2C(=O)NC2(CC(C)(C)C2)C(=O)N(C)[C@@H](C(CC)CC)C(=O)N(C)[C@H](C(=O)N(C)C)CC(=O)N1C [PP2537] | 0.74 | AA (a compound having 20 or more is denoted as AA) | A (a compound having 10 or more and less than 20 is denoted as A) | 75.1 |
| CCC[C@H]1C(=O)N[C@@H](CC(C)C)C(=O)N(CC)CC(=O)N(C)[C@H]2C/C=C\CCN(C2=O)[C@@H](Cc2ccc(C)cc2)C(=O)N(C)CC(=O)N[C@@H](CCc2cc(F)c(C(F)(F)F)c(F)c2)C(=O)N2C[C@H](OCC)C[C@H]2C(=O)NC2(CCC2)C(=O)N(C)[C@@H](C2CCCC2)C(=O)N(C)[C@H](C(=O)N(C)C)CC(=O)N1C [PP2539] | 4.3 | A (a compound having 10 or more and less than 20 is denoted as A) | B (a compound having 3 or more and less than 10 is denoted as B) | 330 |
| CCC[C@H]1C(=O)N[C@@H](CC(C)C)C(=O)N(CC)CC(=O)N(C)[C@H]2C/C=C\CCN(C2=O)[C@@H](Cc2ccc(C)cc2)C(=O)N(C)CC(=O)N[C@@H](CCc2ccc(C(F)(F)F)c(OC)c2)C(=O)N2C[C@H](OCC)C[C@H]2C(=O)NC2(CCC2)C(=O)N(C)[C@@H](C2CCCC2)C(=O)N(C)[C@H](C(=O)N(C)C)CC(=O)N1C [PP2540] | 4.6 | A (a compound having 10 or more and less than 20 is denoted as A) | B (a compound having 3 or more and less than 10 is denoted as B) | 562 |
| CCC[C@H]1C(=O)N[C@@H](CC(C)C)C(=O)N(CCOC)CC(=O)N(C)[C@H]2C/C=C\CCN(C2=O)[C@@H](Cc2ccc(C)cc2)C(=O)N(C)CC(=O)N[C@@H](CCc2cc(F)c(C(F)(F)F)c(F)c2)C(=O)N2C[C@H](OCC)C[C@H]2C(=O)NC2(CCC2)C(=O)N(C)[C@@H](C2CCCC2)C(=O)N(C)[C@H](C(=O)N(C)C)CC(=O)N1C [PP2541] | 4.9 | A (a compound having 10 or more and less than 20 is denoted as A) | B (a compound having 3 or more and less than 10 is denoted as B) | 374 |
| CCC[C@H]1C(=O)N[C@@H](CC(C)C)C(=O)N(CCOC)CC(=O)N(C)[C@H]2C/C=C\CCN(C2=O)[C@@H](Cc2ccc(C)cc2)C(=O)N(C)CC(=O)N[C@@H](CCc2ccc(C(F)(F)F)c(OC)c2)C(=O)N2C[C@H](OCC)C[C@H]2C(=O)NC2(CCC2)C(=O)N(C)[C@@H](C2CCCC2)C(=O)N(C)[C@H](C(=O)N(C)C)CC(=O)N1C [PP2542] | 4.6 | B (a compound having 3 or more and less than 10 is denoted as B) | B (a compound having 3 or more and less than 10 is denoted as B) | 394 |
| CCC[C@H]1C(=O)N[C@@H](CC(C)C)C(=O)N(CC)CC(=O)N(C)[C@H]2C/C=C\CCN(C2=O)[C@@H](Cc2ccc(C)cc2)C(=O)N(C)CC(=O)N[C@@H](CCc2ccc(C(F)(F)F)c(Cl)c2)C(=O)N2C[C@H](OCC)C[C@H]2C(=O)NC2(CCC2)C(=O)N(C)[C@@H](C2CCCC2)C(=O)N(C)[C@H](C(=O)N(C)C)CC(=O)N1C [PP2545] | 4.3 | A (a compound having 10 or more and less than 20 is denoted as A) | A (a compound having 10 or more and less than 20 is denoted as A) | 279 |
| CCC[C@H]1C(=O)N[C@@H](CC(C)C)C(=O)N(CCOC)CC(=O)N(C)[C@H]2C/C=C\CCN(C2=O)[C@@H](Cc2ccc(C)cc2)C(=O)N(C)CC(=O)N[C@@H](CCc2ccc(C(F)(F)F)c(Cl)c2)C(=O)N2C[C@H](OCC)C[C@H]2C(=O)NC2(CCC2)C(=O)N(C)[C@@H](C2CCCC2)C(=O)N(C)[C@H](C(=O)N(C)C)CC(=O)N1C [PP2546] | 4.7 | B (a compound having 3 or more and less than 10 is denoted as B) | B (a compound having 3 or more and less than 10 is denoted as B) | 295 |
| CCC[C@H]1C(=O)N[C@@H](CC(C)C)C(=O)N2C[C@@H](OC)C[C@H]2C(=O)N(C)[C@H]2C/C=C\CCN(C2=O)[C@@H](Cc2ccc(C)cc2)C(=O)N(C)CC(=O)N[C@@H](CCc2cc(F)c(C(F)(F)F)c(F)c2)C(=O)N2C[C@H](OCC)C[C@H]2C(=O)NC2(CCC2)C(=O)N(C)[C@@H](C2CCCC2)C(=O)N(C)[C@H](C(=O)N(C)C)CC(=O)N1C [PP2547] | 4.4 | A (a compound having 10 or more and less than 20 is denoted as A) | B (a compound having 3 or more and less than 10 is denoted as B) | 1060 |
| CCC[C@H]1C(=O)N[C@@H](CC(C)C)C(=O)N2C[C@@H](OC)C[C@H]2C(=O)N(C)[C@H]2C/C=C\CCN(C2=O)[C@@H](Cc2ccc(C)cc2)C(=O)N(C)CC(=O)N[C@@H](CCc2ccc(C(F)(F)F)c(OC)c2)C(=O)N2C[C@H](OCC)C[C@H]2C(=O)NC2(CCC2)C(=O)N(C)[C@@H](C2CCCC2)C(=O)N(C)[C@H](C(=O)N(C)C)CC(=O)N1C [PP2548] | 7.8 | A (a compound having 10 or more and less than 20 is denoted as A) | B (a compound having 3 or more and less than 10 is denoted as B) | 1050 |
| CCC[C@H]1C(=O)N[C@@H](CC(C)C)C(=O)N2C[C@@H](OC)C[C@H]2C(=O)N(C)[C@H]2C/C=C\CCN(C2=O)[C@@H](Cc2ccc(C)cc2)C(=O)N(C)CC(=O)N[C@@H](CCc2ccc(C(F)(F)F)c(Cl)c2)C(=O)N2C[C@H](OCC)C[C@H]2C(=O)NC2(CCC2)C(=O)N(C)[C@@H](C2CCCC2)C(=O)N(C)[C@H](C(=O)N(C)C)CC(=O)N1C [PP2549] | 6 | A (a compound having 10 or more and less than 20 is denoted as A) | B (a compound having 3 or more and less than 10 is denoted as B) | 506 |
